Where two headings read alike, the source gives them in different places.
Columns and labels:
NCI-H460 tumors = test: NCI-H460 lung model combination study: tumor growth of subcutaneous xenografts in nude mice; assay type: in vivo, human; conditions: Docetaxel 15 mg/kg i.v.; for T/C (tumor growth delay): day 17 (end of the controls), Nr. 46 50 mg/kg i.v., once weekly (q7d)x4, alone or combined; for delay of the average time to reach 1000 mm^3 in tumor volume compared to the controls: until day 71 (end of the study), weekly treatment until day 25, Nr. 46 50 mg/kg
Source text: (§1) The triangles indicate the treatment days.

[1] = Tolerability (body weight) in NCI-H460 tumor-bearing nude mice; conditions: 10 animals per group; Docetaxel 15 mg/kg i.v., alone or with Nr. 46 50 mg/kg i.v.
Source text: as §1

HCT 116 tumors = test: HCT 116 colon cancer model combination study: tumor growth of subcutaneous xenografts in nude mice; assay type: in vivo, human; conditions: Nr. 46 30 mg/kg i.v., irinotecan 12.5 mg/kg i.p.; for T/C (tumor growth delay): day 39 (end of the controls), once weekly (q7d)x10, alone or combined
[2] = assay type: in vivo; conditions: day 39, Nr. 46 30 mg/kg i.v., irinotecan 12.5 mg/kg i.p., once weekly; for body weight gain: controls gained 10.3%
BxPC-3 tumours = test: BxPC-3 pancreas model combination study: tumour growth of subcutaneous xenografts in nude mice; assay type: in vivo, human; conditions: day 26 (end of the controls); Nr. 46 50 mg/kg i.v., gemcitabine 100 mg/kg i.p., once weekly (q7d)x6, alone or combined
[3] = for body weight gain: day 26, Nr. 46 50 mg/kg i.v., gemcitabine 100 mg/kg i.p., once weekly, controls gained 6.2%
Method: Suboptimal doses of both compounds were used to facilitate the detection of additive, synergistic or antagonistic effects. Design of the Study • Model: Human adenocarcinoma model BxPC-3 grown as subcutaneous xenografts in nude mice. • Treatment groups (10 animals per group): • Controls Vehicle, i.v., once weekly for 4 weeks ((q7d)×4) • Exemplified compound Nr.
Tumor volumes and animal weights were recorded 3 times per week. Evaluation of therapy results was based on the absolute volumes of individual tumors.
Mice were female BomTac:NMRI-nu/nu. […] Gemcitabin infusion concentrate was diluted with 0.9% NaCl and injected intraperitoneally. The administration volume was 10 ml per kg body weight for both compounds. BxPC-3 tumours were established from cultured BxPC-3. Tumour volumes were determined three times a week using a calliper. The weight of mice was determined as an indicator of tolerability on the same days. Plasma samples were taken on the last treatment day.

SMILES	T/C (tumor growth delay) (NCI-H460 tumors) [%]	delay of the average time to reach 1000 mm^3 in tumor volume compared to the controls (NCI-H460 tumors) [days]	mice euthanized due to severe loss of body weight [1]	T/C (tumor growth delay) (HCT 116 tumors) [%]	delay of the average time to reach 1000 mm^3 in tumor volume (HCT 116 tumors; day 121 (end of the study), weekly treatment until day 64) [days]	body weight gain [2] [%]	T/C (tumour growth delay) (BxPC-3 tumours) [%]	body weight gain [3] [%]	tolerability of higher doses ([3]; mouse, in vivo)	tolerability [2]
CC(=O)O[C@@]12CO[C@@H]1C[C@H](O)[C@@]1(C)C(=O)[C@H](O)C3=C(C)[C@@H](OC(=O)[C@H](O)[C@@H](NC(=O)OC(C)(C)C)c4ccccc4)C[C@@](O)([C@@H](OC(=O)c4ccccc4)[C@H]21)C3(C)C [Docetaxel]	42	10.5	one mouse had to be euthanized							
CC[C@@H]1C(=O)N(C)c2cnc(Nc3ccc(C(=O)NC4CCN(C)CC4)cc3OC)nc2N1C1CCCC1 [exemplified compound Nr. 46, 4-[[(7R)-8-cyclopentyl-7-ethyl-5,6,7,8-tetrahydro-5-methyl-6-oxo-2-pteridinyl]amino]-3-methoxy-N-(1-methyl-4-piperidinyl)-benzamide]	65	4.0		20	33.7	8.6	28	8.2		
Nc1ccn([C@@H]2O[C@H](CO)[C@@H](O)C2(F)F)c(=O)n1 [gemcitabine, Gemcitabine]							65	8.8	not tolerated	
CCc1c2c(nc3ccc(OC(=O)N4CCC(N5CCCCC5)CC4)cc13)-c1cc3c(c(=O)n1C2)COC(=O)[C@]3(O)CC [irinotecan]				25		5.9				well tolerated

From patent publication US8591895B2, “Combinations for the treatment of diseases involving cell proliferation” (Boehringer Ingelheim International GmbH, priority 2004, dated 2013)
